Experiment [1] deals with T1, human A2AAR (Homo sapiens, UniProt P29274).
T1 construct: expressed in transfected cells; host or cells: HEK293 cells stably expressing the human A2AAR
The experiment can be described thus: Fluorescent ligand MRS7416 binding to intact HEK293 cells (flow cytometry). To be noted: for Ki: displacement of 15 nM fluorescent MRS7416, intact cells, 37 °C, 60 min; for Times weaker in displacing MRS7416 binding than radioligand binding: fluorescent versus radioligand Ki. The procedure:
Cells were plated in 96-well plates and grow overnight. In saturation binding experiments with fluorescent antagonist MRS7416, various concentrations were incubated in cell culture medium with control HEK293 cells or HEK293 cells expressing the A2AAR for 60 min at 37 °C in an atmosphere containing 5% CO2. […] At the end the reaction, the medium was removed, and cells were washed twice with PBS. After washing, 0.2 mL 0.1% EDTA solution was added to each well, and cells were incubated at 37 °C for 10 min. Following cell detachment and mixing of cells, the intensity of fluorescence emission of each sample was measured by using flow cytometry as previously described. […] Samples were maintained in the dark during the analysis to avoid photobleaching. Mean fluorescence intensity (MFI) was determined in the FL-1 channel in log mode. Ten thousand events were analyzed per sample. Data were collected using Cell Quest Pro software (BD, Franklin Lakes, NJ, USA) and analyzed by Cyflogic v. 1.2.1 software (CyFlo, Ltd., Turku, Finland).

Experiment [2] deals with T1, human A2AAR. Nature of the experiment: cAMP accumulation assay, antagonism of CGS21680 with Schild analysis. It counts as cell-based. The note with it: for Kb / Functional Antagonism Slope (Schild): Schild analysis, CGS21680-induced cAMP; for Kb: antagonist pretreatment 20 min, read-out: Functional Antagonism KB; for Functional Antagonism Slope (Schild): linear part of plot only for XAC630, MRS7396, HMA; for Pattern of A2AAR antagonism: from functional antagonism and Schild analysis. The procedure:
HEK293 cells stably expressing the human A2AAR were seeded in 96-well plates and incubated in 100 µL medium at 37 °C overnight. The medium was removed the following day and cells were then treated with assay buffer containing rolipram (10 μM) and antagonists for 20 min followed by the addition of agonists, and then incubated for 20 min. The reaction was terminated upon removal of the supernatant and addition of 100 µL Tween-20 (0.3%). Intracellular 3′,5′-cyclic adenosine monophosphate (cAMP) levels were measured with an ALPHAScreen cAMP assay kit as instructed by the manufacturer (PerkinElmer, Boston, MA, USA).
(§1) Functional parameters were calculated using Prism 8.1.0 software (GraphPAD, San Diego, CA, USA). Data were expressed as mean ± standard error. Data were analyzed by analysis of variance (ANOVA) followed by post hoc analysis to check the statistical difference among groups with p < 0.05 being considered significant.
To examine and analyze mechanistically the patterns of functional antagonism by various antagonists of different chemical entities, cells expressing relatively low A2AAR levels with minimal signaling amplification were used, as recommended, since receptor overexpression is related to the constitutive activity, and signaling amplification has been linked to changing the patterns of antagonism.

Experiment [3] has as its target T1, human A2AAR. The experiment can be described thus: [^3H]CGS21680 radioligand binding, HEK293 membranes. The note with it: for Ki: 5 nM [^3H]CGS21680, membranes, 25 °C, 60 min; for [^3H]CGS21680 binding, percent effect of the fluorophore amide alone: at a concentration of 10 µM. The procedure:
(§2) HEK293 cells expressing the human A2AAR were cultured in DMEM supplemented with 10% fetal bovine serum, 100 Units/mL penicillin, 100 µg/mL streptomycin and 2 µmol/mL glutamine. To prepare cell membranes, cells were detached from plates by scraping into PBS and centrifuged at 250× g for 5 min. The resulting pellets were re-suspended in ice-cold Tris-HCl buffer (50 mM, pH 7.4) and homogenized. After homogenization and suspension, cells were first centrifuged at 1000× g for 10 min and the pellet was discarded. The suspension was then re-centrifuged at 20,000× g for 60 min at 4 °C. The pellets were re-suspended, split into aliquots and stored at −80 °C. The protein concentration was measured using the Bradford assay.
(§3) Radioligand binding assays were performed using membranes prepared from HEK293 cells expressing human the A2AAR using both agonist and antagonist radioligands as previously described. […] (5 nM) or [^3H]ZM241385 (1 nM) and membrane preparations (20 μg protein) at 25 °C for 60 min in a total of 200 μL of Tris-HCl buffer (50 mM, pH 7.5) containing 10 mM MgCl2. […] Binding reactions were terminated by filtration through Whatman GF/B filters under reduced pressure using an MT-24 cell harvester (Brandell, Gaithersburg, MD, USA) followed by washing twice with 5 mL of cold Tris-HCl buffer.
as §1

In experiment [4] the target is T1, human A2AAR. The experiment can be described thus: [^3H]ZM241385 radioligand binding, HEK293 membranes. The note with it: for Ki: WT receptor, 1 nM [^3H]ZM241385, membranes, 25 °C, 60 min. Here is the method: as §2, §3, §1
In a further experiment the target is T2, D52N mutant A2AAR (Homo sapiens, UniProt P29274, D52N).
T2 construct: expressed in transfected cells; host or cells: HEK293 cells
T2 sequence (P29274 whole entry D52N): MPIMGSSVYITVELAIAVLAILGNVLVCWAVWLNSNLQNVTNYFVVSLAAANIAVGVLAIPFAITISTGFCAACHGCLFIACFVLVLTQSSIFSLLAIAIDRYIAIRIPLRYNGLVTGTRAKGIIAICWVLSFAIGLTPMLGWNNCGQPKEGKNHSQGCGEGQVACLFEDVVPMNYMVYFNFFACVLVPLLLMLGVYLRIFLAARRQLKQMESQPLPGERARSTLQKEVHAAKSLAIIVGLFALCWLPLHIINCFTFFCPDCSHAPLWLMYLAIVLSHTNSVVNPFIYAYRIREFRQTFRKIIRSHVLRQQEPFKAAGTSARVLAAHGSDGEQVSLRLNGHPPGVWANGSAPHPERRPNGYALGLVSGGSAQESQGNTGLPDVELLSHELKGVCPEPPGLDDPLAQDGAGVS
Nature of the experiment: [^3H]ZM241385 binding to D52N mutant A2AAR expressed in HEK293 cells. The note with it: for Ki: 1 nM [^3H]ZM241385. The procedure: as §3
Here we examined if HMA and MRS7396 behave in a similar manner or not.
Data were from three independent experiments performed in duplicate.

The subject of another experiment is A2AAR D52A mutation. Details: method as in Massink et al. [10],[11]. To be noted: ref Massink et al. [10],[11]; cited from earlier work.

The term Kb denotes the affinity of an antagonist, worked out from how it opposes an agonist. What is called Ki is the equilibrium dissociation constant of an inhibitor or competing ligand from its target. A lower Ki goes with tighter binding.

T1 sequence (P29274 whole entry): as the sequence (P29274 whole entry D52N) above, with N52D counted along it

Turning to `N=c1ccc2c(-c3ccc(C(=O)NCCCCNC(=O)COc4ccc(CCCn5ncc6c5nc(N)n5nc(-c7ccco7)nc65)cc4)cc3C(=O)O)c3ccc(N)c(S(=O)(=O)O)c3oc-2c1S(=O)(=O)O` [MRS7416], at human A2AAR [1] (saturation binding, intact cells, n = 6, read-out: Kd value from MRS7416 saturation experiments), the Kd is 0.0176 ± 0.0041 µM. On human A2AAR [2], the Kb came to 0.00911 ± 0.00177 µM, the “Functional Antagonism Slope (Schild)” value came to 0.68 ± 0.03 and the “Pattern of A2AAR antagonism” value was “allosteric A2AAR antagonists”. In addition, the Ki on human A2AAR [3] is 16.4 ± 1.6 nM. For the same compound, the inhibition constant (Ki) at human A2AAR [4] is 23.8 ± 5.6 nM.

In the case of `N#Cc1c(N)nc(SCc2ncc[nH]2)c(C#N)c1-c1ccc(O)cc1` [LUF5834, 2-amino-4-(4-hydroxyphenyl)-6-[(1H-imidazol-2-ylmethyl)thio]-3,5-pyridinecarbonitrile, reference compound], the Ki came out at 23 ± 4.6 nM at human A2AAR [1] and 13.3 ± 6.5 nM on human A2AAR [4].

In the case of `CCCn1c(=O)c2[nH]c(-c3ccc(OCC(=O)NCCNC(=O)CCNC(=O)CCCCNC(=O)CCCCCN)cc3)nc2n(CCC)c1=O` [XAC245], affinity at human A2AAR [1] was put at a Ki of 152 ± 29 nM. In addition, on human A2AAR [2], the Kb came to 0.28 ± 0.033 µM, the “Functional Antagonism Slope (Schild)” value is 0.68 ± 0.04 and the “Pattern of A2AAR antagonism” value was “allosteric A2AAR antagonists”. The compound further had a Ki at human A2AAR [3] of 220 ± 36 nM. The compound also yielded a Ki at human A2AAR [4] of 198 ± 33 nM.

For the compound `CCCn1c(=O)c2[nH]c(-c3ccc(OCC(=O)NCCNC(=O)CCNC(=O)CCCCNC(=O)CCCCCNC(=O)c4ccc(-c5c6ccc(=N)c(S(=O)(=O)O)c-6oc6c(S(=O)(=O)O)c(N)ccc56)c(C(=O)O)c4)cc3)nc2n(CCC)c1=O` [XAC488], on human A2AAR [2], the antagonist equilibrium constant (Kb) is 0.65 ± 0.12 µM, the “Functional Antagonism Slope (Schild)” value stood at 1.03 ± 0.05 and the “Pattern of A2AAR antagonism” value was “antagonized competitively”. The Ki on human A2AAR [3] came out at 438 ± 110 nM. The Ki on human A2AAR [4] stood at 388 ± 62 nM.

For the compound `Nc1nc2c(cnn2CCCc2ccc(OCc3ccc(S(=O)(=O)O)cc3)cc2)c2nc(-c3ccco3)nn12` [MRS7352], the figures for the Ki at human A2AAR [1], on human A2AAR [3] and on human A2AAR [4] were 5.28 ± 1.31 nM, 4.98 ± 1.13 nM and 6.24 ± 2.42 nM, respectively. In addition, at human A2AAR [2], the Kb was 0.00661 ± 0.00088 µM. The “Functional Antagonism Slope (Schild)” value on human A2AAR [2] is listed as 0.88 ± 0.06.

On to `NC(=O)CCCCCNC(=O)COc1ccc(/C=C/C2=[N+]3C(=Cc4ccc(-c5cccs5)n4[B-]3(F)F)C=C2)cc1` [BY630-amide], for which, at human A2AAR [3], the “[^3H]CGS21680 binding, percent effect of the fluorophore amide alone” value came to 2.6 ± 1.5%.

On to `Nc1nc2c(cnn2CCCc2ccc(OCC(=O)NCCCCNC(=O)CCCCCNC(=O)COc3ccc(/C=C/C4=[N+]5C(=Cc6ccc(-c7cccs7)n6[B-]5(F)F)C=C4)cc3)cc2)c2nc(-c3ccco3)nn12` [MRS7396], for which, on human A2AAR [1], the Ki was determined as 256 ± 33 nM and the “Times weaker in displacing MRS7416 binding than radioligand binding” value (“Times weaker” for short) was 9–100 times. The Ki at D52N mutant A2AAR came to 0.00079 ± 0.00023 µM. The “Fold weaker at WT than at the D52N mutant receptor” value at D52N mutant A2AAR ([^3H]ZM241385 binding) was ~ 3 fold. Also, on human A2AAR [2], the Kb turned out to be 0.0017 ± 0.00034 µM, the “Functional Antagonism Slope (Schild)” value was found to be 0.42 ± 0.02 and the “Pattern of A2AAR antagonism” value is on record as “allosteric A2AAR antagonists”. This compound also had a Ki on human A2AAR [3] of 2.83 ± 0.2 nM. The compound also registered a Ki at human A2AAR [4] of 2.34 ± 0.33 nM. Also, on human A2AAR [4] (radioligand binding), the “Fold more potent in binding in comparison to MRS7416” value is 10 fold.

Take `N=c1ccc2c(-c3ccc(C(N)=O)cc3C(=O)O)c3ccc(N)c(S(=O)(=O)O)c3oc-2c1S(=O)(=O)O` [AF488-amide]: the “[^3H]CGS21680 binding, percent effect of the fluorophore amide alone” value at human A2AAR [3] worked out at 3.7 ± 1.2%.

With `CCCn1c(=O)c2[nH]c(-c3ccc(OCC(=O)NCCNC(=O)CCCCCNC(=O)COc4ccc(/C=C/C5=[N+]6C(=Cc7ccc(-c8cccs8)n7[B-]6(F)F)C=C5)cc4)cc3)nc2n(CCC)c1=O` [XAC630, reference compound], at human A2AAR [1], the affinity, expressed as Ki, was 692 ± 173 nM and the “Times weaker” value was 9–100 times. Further, at human A2AAR [2], the Kb came out at 0.0511 ± 0.0122 µM, the “Functional Antagonism Slope (Schild)” value stood at 0.47 ± 0.04 and the “Pattern of A2AAR antagonism” value is “allosteric A2AAR antagonists”. Moreover, the affinity at human A2AAR [3], expressed as Ki, was 29 ± 5.7 nM. At human A2AAR [4], this compound came in with a Ki of 36.6 ± 10.1 nM.

On to `NC(N)=NC(=O)c1nc(Cl)c(N2CCCCCC2)nc1N` [HMA, 5-(N,N-hexamethylene)amiloride, reference compound], for which the Ki on human A2AAR [1] stood at 18500 ± 2800 nM; on D52N mutant A2AAR, 15.8 µM; on human A2AAR [3], 2120 ± 510 nM; on human A2AAR [4], 3050 ± 1210 nM. Further, on human A2AAR [1], the “Times weaker” value is 9–100 times. The “Fold decrease of affinity by D52A mutation” value in the experiment with A2AAR D52A mutation is “over 10 fold”. The “Fold affinity decrease at D52N versus WT” value on D52N mutant A2AAR ([^3H]ZM241385 binding) is 5 fold. Also, on human A2AAR [2], the Kb was 3.81 ± 0.45 µM. In addition, the “Functional Antagonism Slope (Schild)” value on human A2AAR [2] is reported as 0.59 ± 0.05.

These data come from PMC7290864, “Allosteric Antagonism of the A2A Adenosine Receptor by a Series of Bitopic Ligands” (Cells, 2020).
